Experimental data as given in patent US10364233B2, “Piperidine derivative and methods of use thereof” (vTv Therapeutics LLC, priority 2016, dated 2019).
Like-named read-outs stand apart in the source and are kept apart here.

Key:
[1] = target: sRAGE (S100b as the RAGE ligand) (Homo sapiens, UniProt Q15109); assay: General binding assay: inhibition of sRAGE binding to plate-bound S100b; details: n = 13, hydrochloride salt
Description: (§1) The following is one potential method for screening. S100b or β-amyloid (500 ng/100 μL/well) in 100 mM sodium bicarbonate/sodium carbonate buffer (pH 9.8) is loaded onto the wells of a NUNC Maxisorp flat bottom 96-well microtitre plate. The plate is incubated at 4° C. overnight. The wells are aspirated and treated with 50 mM imidazole buffer saline (pH 7.2) (with 5 mM CaCl2)/MgCl2) containing 1% bovine serum albumin (BSA) (300 μL/well) for 1 h at RT. The wells are aspirated.
(§2) The test compound is dissolved in nanopure water (concentration: 10-100 μM). DMSO may be used as co-solvent. 25 μL of test compound solution in 4% DMSO is added, along with 75 μL sRAGE (6 nM FAC) to each well and samples are incubated for 1 h at 37° C. The wells are washed several times with 155 mM NaCl pH 7.2 buffer saline and are soaked for several seconds between each wash.
(§3) Non-Radioactive Detection is Performed by Adding:
(§4) 10 μL Biotinylated goat F(ab′)2 Anti-mouse IgG. […]
(§5) 100 μL of complex is added to each well and incubation is allowed to proceed at rt for 1 h. […] The reaction is quenched with 10 μL of stop solution (0.5-1.0 N NaOH in 50% ethanol) and the absorbance is measured spectrophotometrically with a microplate reader at 405 nm. […]

[2] = target: sRAGE (β-amyloid as the RAGE ligand) (Homo sapiens, UniProt Q15109); assay: General binding assay: inhibition of sRAGE binding to plate-bound β-amyloid; details: n = 11, hydrochloride salt
Description: as §1, §2, §3, §4, §5

[3] = system: S100b mediated TNF release from THP-1 cells (RAGE signaling); assay: Functional assay: inhibition of S100b mediated TNF release from THP-1 cells; format: cell-based; details: Homo sapiens; THP-1 cells stimulated with bovine S100b; TNF-alpha by ELISA after 24 hours; hydrochloride salt
Description: Previously the literature has cited that THP-1 cells in response to RAGE ligands secrete TNF alpha (Yeh C-H, et al. Diabetes. Vol. 50, June 2001, pp. 1495-1504). The following assay method may be used to identify compounds of Formula (I) or pharmaceutically acceptable salts thereof which are useful as antagonists of RAGE signaling.
The myeloid cell line, THP-1 (ATTC # TIB-202), is cultured in RPMI-1640 media (ATCC, Cat #30-2001) supplemented with fetal bovine serum to a final concentration of 10% by volume and Penicillin-Streptomycin (Gibco, Cat #0.15140-122). Alternatively, media may be formulated using RPMI 1640 (Bio-Whitaker #12-702F) supplemented with 2 mM L-glutamine (Gibco #12381-018) adjusted to contain 1.5 g/L sodium bicarbonate (Gibco #25080-094), 4.5 g/L glucose, 10 mM HEPES (Cellgro #25-060-L1) and 1.0 mM sodium pyruvate (Gibco #11360-070) and supplemented with 0.05 mM 2-mercaptoethanol, […] per ATCC instructions. During culture, the culture cells may be maintained at a density between 5×10^4 and 1×10^6 viable cells/mL. […]
The amount of TNF-alpha secreted by the THP-1 cells may be measured 24 hours after the addition of the stimulant proteins to the cell culture using a commercially available ELISA kit (R&D Systems, Minneapolis, Minn. # DY210). […] The plate may be read at 450 nm within 30 minutes. […]

Chain of UniProt Q15109 (Q15109 23-342 limits assumed): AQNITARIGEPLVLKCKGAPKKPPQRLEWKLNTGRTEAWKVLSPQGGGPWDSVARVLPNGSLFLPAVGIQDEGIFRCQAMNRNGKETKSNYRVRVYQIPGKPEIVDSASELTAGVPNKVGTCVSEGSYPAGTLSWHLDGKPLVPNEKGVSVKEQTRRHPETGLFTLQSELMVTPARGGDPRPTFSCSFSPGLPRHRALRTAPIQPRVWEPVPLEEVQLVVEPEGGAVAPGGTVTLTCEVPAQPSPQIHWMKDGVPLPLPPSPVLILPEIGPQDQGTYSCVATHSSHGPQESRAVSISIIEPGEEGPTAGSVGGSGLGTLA
Chain of UniProt Q15109 (Q15109 23-342 limits assumed): as above

IC50 ([1]; average, read-out: IC50 (S100b) average): 420 nM
IC50 ([1]; range of individual determinations, read-out: IC50 (S100b)): 220 to 620 nM
IC50 ([2]; average, read-out: IC50 (β-amyloid) average): 400 nM
IC50 ([2]; range of individual determinations, read-out: IC50 (β-amyloid)): 270 to 600 nM
IC50 [3]: ~500 nM
SMILES: Cc1nn(C2CCCCC2)c(C)c1S(=O)(=O)N1CCC(CN(CC(C)C)S(=O)(=O)c2ccc(CNCC3CCNCC3)cc2)(c2ccccc2)CC1 [compound of Formula (I), N-[1-(1-Cyclohexyl-3,5-dimethyl-1H-pyrazole-4-sulfonyl)-4-phenyl-piperidin-4-ylmethyl]-N-isobutyl-4-{[(piperidin-4-ylmethyl)-amino]-methyl}-benzenesulfonamide]
